Laboratory results as given in PMC4457528, “Identification of Novel Small Molecule Inhibitors of Oncogenic RET Kinase” (PLoS ONE, 2015).
Like-named read-outs stand apart in the source and are kept apart here.

Key:
Experiment in all cases: KinomeScan kinase panel, single concentration 10 µM
Type in all cases: binding
KinomeScan kinase panel [1] = molecular target: T1, KinomeScan kinase panel (Homo sapiens, UniProt P22607); settings: FGFR3, 10 µM; read-out: score (%)
T1 construct: purchased DiscoveRx (KinomeScan)
T1 sequence (P22607 23-806): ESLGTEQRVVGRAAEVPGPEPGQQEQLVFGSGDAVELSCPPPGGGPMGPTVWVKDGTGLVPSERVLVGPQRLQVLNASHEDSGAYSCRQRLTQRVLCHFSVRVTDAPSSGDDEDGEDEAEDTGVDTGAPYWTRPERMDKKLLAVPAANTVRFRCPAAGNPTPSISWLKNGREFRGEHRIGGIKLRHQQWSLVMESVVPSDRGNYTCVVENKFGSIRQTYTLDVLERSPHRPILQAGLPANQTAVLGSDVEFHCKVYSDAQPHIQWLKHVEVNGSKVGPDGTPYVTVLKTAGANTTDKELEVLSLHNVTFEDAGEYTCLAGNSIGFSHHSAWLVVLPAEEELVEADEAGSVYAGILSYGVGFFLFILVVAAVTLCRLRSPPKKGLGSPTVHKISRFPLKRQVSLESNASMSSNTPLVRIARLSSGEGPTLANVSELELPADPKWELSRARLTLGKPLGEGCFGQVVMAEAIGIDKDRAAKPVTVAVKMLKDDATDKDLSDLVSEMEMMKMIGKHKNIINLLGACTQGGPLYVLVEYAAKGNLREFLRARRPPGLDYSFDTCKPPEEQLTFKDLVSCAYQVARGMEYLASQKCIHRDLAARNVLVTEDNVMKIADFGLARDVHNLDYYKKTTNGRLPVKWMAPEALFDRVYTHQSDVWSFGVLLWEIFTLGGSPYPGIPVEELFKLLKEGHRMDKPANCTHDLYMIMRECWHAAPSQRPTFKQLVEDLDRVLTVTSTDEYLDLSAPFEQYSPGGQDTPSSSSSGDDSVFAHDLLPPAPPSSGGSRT

KinomeScan kinase panel [2] = molecular target: T2, KinomeScan kinase panel (Homo sapiens, UniProt O00329); settings: PIK3CD, 10 µM; read-out: score (%)
T2 construct: purchased DiscoveRx (KinomeScan)
T2 sequence (O00329 1-1044): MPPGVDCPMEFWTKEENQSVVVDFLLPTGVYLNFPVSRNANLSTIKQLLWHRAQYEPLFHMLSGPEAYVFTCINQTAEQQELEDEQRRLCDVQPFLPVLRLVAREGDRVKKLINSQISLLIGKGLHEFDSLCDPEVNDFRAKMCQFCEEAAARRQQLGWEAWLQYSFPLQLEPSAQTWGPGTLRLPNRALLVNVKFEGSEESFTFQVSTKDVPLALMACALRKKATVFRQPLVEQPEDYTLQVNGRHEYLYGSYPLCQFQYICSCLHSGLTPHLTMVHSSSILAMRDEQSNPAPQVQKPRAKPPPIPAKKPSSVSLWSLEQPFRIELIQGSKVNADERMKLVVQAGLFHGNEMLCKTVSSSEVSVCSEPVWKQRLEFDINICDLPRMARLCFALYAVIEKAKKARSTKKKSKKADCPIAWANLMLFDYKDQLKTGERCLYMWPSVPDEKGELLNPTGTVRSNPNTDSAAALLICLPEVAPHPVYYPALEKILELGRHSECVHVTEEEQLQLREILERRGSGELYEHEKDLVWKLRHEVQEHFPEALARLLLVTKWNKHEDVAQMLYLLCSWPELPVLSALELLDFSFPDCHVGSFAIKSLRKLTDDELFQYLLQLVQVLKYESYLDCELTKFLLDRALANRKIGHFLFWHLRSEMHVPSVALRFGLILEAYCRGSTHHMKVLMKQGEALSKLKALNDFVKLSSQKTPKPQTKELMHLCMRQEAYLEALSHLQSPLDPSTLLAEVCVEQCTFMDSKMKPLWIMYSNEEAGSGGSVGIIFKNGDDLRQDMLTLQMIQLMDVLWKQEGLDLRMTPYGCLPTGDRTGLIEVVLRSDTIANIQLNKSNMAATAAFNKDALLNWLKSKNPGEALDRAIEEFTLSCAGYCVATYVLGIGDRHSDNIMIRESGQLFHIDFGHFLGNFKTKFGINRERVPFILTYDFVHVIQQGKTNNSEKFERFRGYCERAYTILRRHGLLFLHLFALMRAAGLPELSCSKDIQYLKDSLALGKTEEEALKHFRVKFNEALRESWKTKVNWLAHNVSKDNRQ

KinomeScan kinase panel [3] = molecular target: T3, KinomeScan kinase panel (Homo sapiens, UniProt P35916); settings: FLT4, 10 µM; read-out: score (%)
T3 construct: purchased DiscoveRx (KinomeScan)

KinomeScan kinase panel [4] = molecular target: T4, KinomeScan kinase panel (Homo sapiens, UniProt Q9P1W9); settings: PIM2, 10 µM; read-out: score (%)
T4 construct: purchased DiscoveRx (KinomeScan)
T4 sequence (Q9P1W9 whole entry): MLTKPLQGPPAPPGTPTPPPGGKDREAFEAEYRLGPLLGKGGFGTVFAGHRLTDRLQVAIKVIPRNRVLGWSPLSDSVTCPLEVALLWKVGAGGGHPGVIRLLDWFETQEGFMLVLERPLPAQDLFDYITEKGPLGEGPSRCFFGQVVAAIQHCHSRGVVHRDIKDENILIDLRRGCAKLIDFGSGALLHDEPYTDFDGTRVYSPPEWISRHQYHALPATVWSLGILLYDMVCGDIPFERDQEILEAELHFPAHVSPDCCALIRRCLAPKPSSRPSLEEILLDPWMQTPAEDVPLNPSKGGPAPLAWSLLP

KinomeScan kinase panel [5] = molecular target: T5, KinomeScan kinase panel (Homo sapiens, UniProt P06241); settings: FYN, 10 µM; read-out: score (%)
T5 construct: purchased DiscoveRx (KinomeScan)
T5 sequence (P06241 whole entry): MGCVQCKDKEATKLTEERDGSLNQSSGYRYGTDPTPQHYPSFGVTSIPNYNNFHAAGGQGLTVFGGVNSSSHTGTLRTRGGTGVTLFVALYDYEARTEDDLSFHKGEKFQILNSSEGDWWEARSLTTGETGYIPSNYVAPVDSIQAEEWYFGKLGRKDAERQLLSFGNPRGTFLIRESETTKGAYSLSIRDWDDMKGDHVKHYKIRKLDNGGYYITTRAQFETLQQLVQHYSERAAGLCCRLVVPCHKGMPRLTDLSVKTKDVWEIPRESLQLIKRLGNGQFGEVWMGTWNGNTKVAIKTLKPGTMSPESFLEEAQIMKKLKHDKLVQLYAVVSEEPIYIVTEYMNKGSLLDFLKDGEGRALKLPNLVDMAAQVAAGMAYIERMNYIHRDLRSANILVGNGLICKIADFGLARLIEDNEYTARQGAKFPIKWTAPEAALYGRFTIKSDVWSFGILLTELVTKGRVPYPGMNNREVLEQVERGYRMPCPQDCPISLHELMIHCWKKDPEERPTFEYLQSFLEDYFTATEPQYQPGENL

KinomeScan kinase panel [6] = molecular target: T6, KinomeScan kinase panel (Homo sapiens, UniProt Q9NSY1); settings: BIKE, 10 µM; read-out: score (%)
T6 construct: purchased DiscoveRx (KinomeScan)
T6 sequence (Q9NSY1 whole entry): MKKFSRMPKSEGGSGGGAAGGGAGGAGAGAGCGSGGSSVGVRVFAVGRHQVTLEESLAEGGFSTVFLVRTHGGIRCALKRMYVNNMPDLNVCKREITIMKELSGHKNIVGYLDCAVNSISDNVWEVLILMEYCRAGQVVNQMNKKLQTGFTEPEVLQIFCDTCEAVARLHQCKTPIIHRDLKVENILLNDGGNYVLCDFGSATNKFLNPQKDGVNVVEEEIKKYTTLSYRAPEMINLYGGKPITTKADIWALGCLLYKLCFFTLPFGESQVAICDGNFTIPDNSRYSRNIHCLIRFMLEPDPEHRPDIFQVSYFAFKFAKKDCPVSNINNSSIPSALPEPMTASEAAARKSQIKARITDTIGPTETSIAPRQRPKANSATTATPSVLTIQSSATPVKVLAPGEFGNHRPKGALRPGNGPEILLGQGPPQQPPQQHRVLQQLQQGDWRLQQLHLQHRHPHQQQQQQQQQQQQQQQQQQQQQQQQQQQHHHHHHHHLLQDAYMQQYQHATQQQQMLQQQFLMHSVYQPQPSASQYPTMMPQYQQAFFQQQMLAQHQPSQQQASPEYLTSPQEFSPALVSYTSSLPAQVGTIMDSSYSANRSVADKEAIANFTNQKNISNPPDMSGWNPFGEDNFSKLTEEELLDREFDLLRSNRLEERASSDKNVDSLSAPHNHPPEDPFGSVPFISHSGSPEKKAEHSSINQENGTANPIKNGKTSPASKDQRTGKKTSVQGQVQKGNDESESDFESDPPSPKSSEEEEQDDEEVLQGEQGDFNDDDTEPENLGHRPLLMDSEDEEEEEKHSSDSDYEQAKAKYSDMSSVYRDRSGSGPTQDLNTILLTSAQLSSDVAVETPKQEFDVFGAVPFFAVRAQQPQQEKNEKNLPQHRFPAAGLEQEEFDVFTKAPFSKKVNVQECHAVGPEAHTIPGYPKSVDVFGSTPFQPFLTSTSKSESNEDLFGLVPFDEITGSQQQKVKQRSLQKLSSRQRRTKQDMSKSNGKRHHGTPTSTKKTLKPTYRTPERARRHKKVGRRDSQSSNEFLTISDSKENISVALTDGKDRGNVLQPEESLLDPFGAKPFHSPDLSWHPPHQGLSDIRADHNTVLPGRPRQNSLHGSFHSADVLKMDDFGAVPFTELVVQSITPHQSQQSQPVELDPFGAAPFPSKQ

KinomeScan kinase panel [7] = molecular target: T7, KinomeScan kinase panel (Homo sapiens, UniProt Q8WXR4); settings: MYO3B, 10 µM; read-out: score (%)
T7 construct: purchased DiscoveRx (KinomeScan)
T7 sequence (Q8WXR4 1-1341): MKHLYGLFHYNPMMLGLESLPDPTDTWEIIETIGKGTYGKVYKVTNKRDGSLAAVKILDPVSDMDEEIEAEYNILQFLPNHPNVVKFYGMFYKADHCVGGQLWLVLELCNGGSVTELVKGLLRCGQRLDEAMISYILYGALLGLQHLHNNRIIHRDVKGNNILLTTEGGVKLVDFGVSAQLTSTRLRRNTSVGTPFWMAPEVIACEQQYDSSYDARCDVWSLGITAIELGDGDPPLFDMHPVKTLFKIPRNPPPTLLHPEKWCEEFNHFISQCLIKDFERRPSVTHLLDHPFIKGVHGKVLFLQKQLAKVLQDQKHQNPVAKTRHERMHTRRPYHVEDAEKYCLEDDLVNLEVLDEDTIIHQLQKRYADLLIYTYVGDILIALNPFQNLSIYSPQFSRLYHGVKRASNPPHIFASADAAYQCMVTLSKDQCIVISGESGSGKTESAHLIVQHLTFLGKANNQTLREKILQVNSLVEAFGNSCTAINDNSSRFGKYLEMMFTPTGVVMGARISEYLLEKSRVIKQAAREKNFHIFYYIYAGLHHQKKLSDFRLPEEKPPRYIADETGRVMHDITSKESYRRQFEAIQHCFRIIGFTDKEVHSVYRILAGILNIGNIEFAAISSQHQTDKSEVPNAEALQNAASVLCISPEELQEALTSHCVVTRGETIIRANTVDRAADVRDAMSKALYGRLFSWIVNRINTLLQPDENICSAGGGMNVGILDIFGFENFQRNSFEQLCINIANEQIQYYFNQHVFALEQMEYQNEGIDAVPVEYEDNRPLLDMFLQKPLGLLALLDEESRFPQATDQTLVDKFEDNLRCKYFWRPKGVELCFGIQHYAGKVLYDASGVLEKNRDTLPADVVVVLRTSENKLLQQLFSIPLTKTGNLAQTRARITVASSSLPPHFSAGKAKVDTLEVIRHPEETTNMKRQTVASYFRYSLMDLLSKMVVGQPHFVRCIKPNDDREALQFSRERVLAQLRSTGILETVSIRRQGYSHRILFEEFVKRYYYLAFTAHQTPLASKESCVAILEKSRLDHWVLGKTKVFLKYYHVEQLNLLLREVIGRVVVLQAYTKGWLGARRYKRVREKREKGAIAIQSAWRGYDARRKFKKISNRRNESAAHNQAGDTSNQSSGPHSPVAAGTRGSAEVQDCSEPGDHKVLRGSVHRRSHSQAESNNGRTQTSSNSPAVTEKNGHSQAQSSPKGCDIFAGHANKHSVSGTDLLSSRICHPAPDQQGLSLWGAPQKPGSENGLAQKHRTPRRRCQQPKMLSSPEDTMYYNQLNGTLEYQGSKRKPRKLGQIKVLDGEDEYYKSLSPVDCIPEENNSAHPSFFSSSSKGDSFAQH

KinomeScan kinase panel [8] = molecular target: T8, KinomeScan kinase panel (Homo sapiens, UniProt Q14289); settings: read-out: score (%)
T8 construct: purchased DiscoveRx (KinomeScan)
T8 sequence (Q14289 whole entry): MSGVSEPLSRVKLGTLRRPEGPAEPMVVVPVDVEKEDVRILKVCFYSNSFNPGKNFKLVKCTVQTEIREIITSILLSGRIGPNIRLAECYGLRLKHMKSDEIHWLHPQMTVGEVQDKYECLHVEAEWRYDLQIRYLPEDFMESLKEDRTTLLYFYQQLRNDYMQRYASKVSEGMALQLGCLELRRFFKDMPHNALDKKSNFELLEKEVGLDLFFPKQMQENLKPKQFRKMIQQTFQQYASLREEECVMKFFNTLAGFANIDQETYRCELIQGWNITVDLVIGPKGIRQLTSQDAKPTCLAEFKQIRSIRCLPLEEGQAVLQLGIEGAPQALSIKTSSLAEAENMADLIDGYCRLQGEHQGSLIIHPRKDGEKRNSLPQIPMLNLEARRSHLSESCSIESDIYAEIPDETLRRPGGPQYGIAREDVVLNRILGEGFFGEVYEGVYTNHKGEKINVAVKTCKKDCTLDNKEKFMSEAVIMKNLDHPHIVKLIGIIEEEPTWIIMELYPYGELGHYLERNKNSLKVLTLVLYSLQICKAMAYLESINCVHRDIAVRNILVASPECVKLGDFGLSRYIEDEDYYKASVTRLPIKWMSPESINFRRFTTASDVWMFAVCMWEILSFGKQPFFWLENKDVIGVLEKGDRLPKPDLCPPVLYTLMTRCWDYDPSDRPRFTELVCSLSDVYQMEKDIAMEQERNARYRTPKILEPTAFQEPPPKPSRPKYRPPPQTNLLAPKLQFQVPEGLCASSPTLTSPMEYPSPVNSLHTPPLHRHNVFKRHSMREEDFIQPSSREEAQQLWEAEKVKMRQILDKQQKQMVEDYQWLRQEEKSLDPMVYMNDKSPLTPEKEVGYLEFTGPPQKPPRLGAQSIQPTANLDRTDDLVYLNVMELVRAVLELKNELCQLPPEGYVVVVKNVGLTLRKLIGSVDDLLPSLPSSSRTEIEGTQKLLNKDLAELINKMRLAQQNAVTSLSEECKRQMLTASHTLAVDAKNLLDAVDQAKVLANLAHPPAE

KinomeScan kinase panel [9] = molecular target: T9, KinomeScan kinase panel (Homo sapiens, UniProt Q15746); settings: MYLK, 10 µM; read-out: score (%)
T9 construct: purchased DiscoveRx (KinomeScan)

Row | Structure (SMILES) | remaining binding at 10 µM (KinomeScan kinase panel [1]) [%] | remaining binding at 10 µM (KinomeScan kinase panel [2]) [%] | remaining binding at 10 µM (KinomeScan kinase panel [3]) [%] | remaining binding at 10 µM (KinomeScan kinase panel [4]) [%] | remaining binding at 10 µM (KinomeScan kinase panel [5]) [%] | remaining binding at 10 µM (KinomeScan kinase panel [6]) [%] | remaining binding at 10 µM (KinomeScan kinase panel [7]) [%] | remaining binding at 10 µM (KinomeScan kinase panel [8]; PYK2, 10 µM) [%] | remaining binding at 10 µM (KinomeScan kinase panel [9]) [%] | remaining binding at 10 µM (KinomeScan kinase panel [8]; PTK2B, 10 µM) [%] | remaining binding at 10 µM (KinomeScan kinase panel [8]; kinase PYK2, 10 µM) [%]
1 | CCN1CCN(Cc2ccc(NC(=O)c3ccc(C)c(NC(=O)c4cncc(-c5cccs5)c4)c3)cc2C(F)(F)F)CC1 [ALW-II-41-27] | > 30 | > 30 | 0 | 22 | 0.25 | > 30 | > 30 | 2.4 | > 30 | – | –
2 | CCN1CCN(Cc2ccc(NC(=O)c3ccc(C)c(/C=C/c4cnc5[nH]ccc5c4Cl)c3)cc2C(F)(F)F)CC1 [HG-6-63-01, (E)-3-(2-(4-chloro-1H-pyrrolo[2,3-b]pyridin-5-yl)vinyl)-N-(4-((4-ethylpiperazin-1-yl)methyl)-3-(trifluoromethyl)phenyl)-4-methylbenzamide] | 2.4 | > 30 | 0.15 | > 30 | 2.2 | 1.2 | 30 | – | > 30 | 5.5 | –
3 | CCN1CCN(Cc2ccc(NC(=O)c3ccc(C)c(C#Cc4cccnc4)c3)cc2C(F)(F)F)CC1 [XMD15-44] | 0.3 | 76 | 0 | 100 | 0.35 | > 30 | 0 | – | > 30 | – | 0.4
